Experimental data: patent publication US20230212251A1, “PEPTIDES DERIVED FROM SORTILIN” (UNIVERSITE DE LIMOGES, priority 2019, published 2023)
Read-outs that look alike come from different tables or passages of the source.

Tests used:
Type in all cases: cell-based
[1] = test system: A549 cell line; assay: Cell survival measured by XTT (Cell Proliferation Kit II); conditions: XTT dehydrogenase activity, read-out: CI50 (concentration giving 50% inhibition of cell activity)
Description: The antineoplastic effect of the synthetic peptide, comprising Tat and a V5 tag of sequence SEQ ID NO 7 was tested on the A549 cell line (adenocarcinoma line having no mutation on the EDFR). A concentration range (0 to 10 μM) of the synthetic peptide of sequence SEQ ID NO 7 according to the invention was incubated for 24, 48 and 72 hours in the cell medium and the dehydrogenase activity thereof (proxy for viability) was measured (Cell Proliferation Kit II (XTT)-Roche) at the end of each incubation, i.e. at 24, 48 and 72 hours. Analysis of the graph representing the activity as a function of the log of the synthetic peptide concentration made it possible to establish CI50 values corresponding to the concentrations for which the peptide results in 50% inhibition of cell activity. These latter are respectively equal to 1.42, 1.52 and 0.57 μM for incubation times of 24, 48 and 72 hours.

[2] = test system: cells; assay: Cell penetration test via western blot; conditions: 0 to 500 nM in complete culture medium, 24 hours' treatment
Description: 3. Extraction of the proteins under denaturing conditions Extraction of the whole proteins is carried out directly on the cell layers, after eliminating the supernatants and rinsing the cells in PBS 1×, or even on cell pellets previously stored at −80° C. It is carried out by incubating the cells with the Laemmli lysis buffer (62.5 mM Tris-HCl ref: 11814273001 ROCHE, pH 6.8, 2% SDS ref: L-4509, Sigma-Aldrich, 25% glycerol ref: G5516, Sigma-Aldrich) made up with 1% (v/v) protease inhibitor cocktail (ref: P8340-1ML, Sigma-Aldrich) and 1% (v/v) phosphatase inhibitor cocktail (ref: P0044-1ML, Sigma-Aldrich), in the proportions […] of buffer for 1.10^6 cells for 30 min over ice. In the case of extraction on the cell layer, a scraper (ref: 179693PK, Nunc, ThermoFisher) is used to collect the cells in the lysis buffer. Lysis is then completed by ultrasound parametered at 60 Hz, amplitude 2 s, for 1 minute (ref: SONIVCX-130-220, VWR). The lysates are then centrifuged at 17,000×g (ref: 75002442, Sorvall, ThermoFisher) for 20 min at 4° C., the supernatant containing the proteins is transferred to a sterile 1.5 mL tube (ref: 0030120086, Eppendorf), and the proteins are assayed by the Bradford method.
5. […] The concentration of the polyacrylamide gels varies from 8 to 15% as a function of the molecular weight of the proteins to be separated and analyzed. […]

[3] = test system: A549 line; assay: Pro-apoptotic effect, real-time IncuCyte Zoom imaging; conditions: A549, peptide 1 μM, 96 hours real time
Description: (§1) In order to study cell death by apoptosis, the cells are seeded at a concentration of 2000 cells per well in 100 μL of culture medium, in 96-well plates. 24 hours later, the cell medium is removed, then the cells are rinsed once with sterile PBS 1× before adding the culture medium containing the different treatments, including the peptide according to the invention at […], and the reagents necessary for analysis of cell death. These latter are: IncuCyte® Caspase-3/7 Green Reagent (ref: 4440; EssenBio) diluted to 1:1000 in the culture medium; IncuCyte® Annexin V Green Reagent (ref: 4642; EssenBio) diluted to 1:200 diluted in the culture medium. Image acquisition is then carried out by positioning the plates in the IncuCyte Zoom® system (Ref: EssenBio) for 96 hours. Four images per well are then obtained, in high definition, every two hours, with the ×10 objective and the phase-contrast and green channels. These acquisitions are carried out automatically and non-invasively. The data are processed automatically with the IncuCyte Zoom® Live-Cell Analysis System (ref: EssenBio).
(§2) The pro-apoptotic effect of the peptide of sequence SEQ ID NO 7 at the concentration of 1 μM was measured in real time using the IncuCyte Zoom® system for 96 hours on the A549 line, on human fibroblasts (non-cancerous cells), as well as on two lines of adenocarcinomas H3255 and H1975, respectively presenting mutations of EGFR that are sensitive (L858R) and resistant (L858R/T790M) to the tyrosine kinase activity receptor inhibitors (TKI) used in the clinic via activation of two markers of apoptosis, namely annexin V and caspases 3 and 7. […] In fact, the levels of expression of these markers are identical under the conditions treated with the peptide and the control conditions. The peptide could therefore have a specific toxicity to cancer cells.

[4] = test system: human fibroblasts (non-cancerous cells); assay: as above; conditions: peptide 1 μM, 96 hours real time, versus control
Description: as §1, §2

[5] = test system: H1975 adenocarcinoma line (EGFR L858R/T790M); assay: as above; conditions: H1975, peptide 1 μM, 96 hours real time
Description: as §1, §2

[6] = test system: H3255 adenocarcinoma line (EGFR L858R); assay: as above; conditions: H3255, peptide 1 μM, 96 hours real time
Description: as §1, §2

[7] = test system: cell nuclei; assay: Subcellular distribution by indirect immunofluorescence; conditions: 2D and 3D confocal imaging
Description: The cells are seeded on a 24-well plate on 14 mm diameter glass slides. After each treatment condition, the cells are fixed, either with the complete medium containing paraformaldehyde (PFA) at 3.7% for 20 min at 4° C., or with methanol at −20° C. for 5 min. With methanol the fixation is carried out by dehydration (denaturing of the proteins), while with the aldehydes (formaldehyde) the 3D structure of the protein is preserved (fixing by bridging). The phosphorylations are analyzed after fixing with PFA. After fixing, the cell layer is washed 3 times for 5 minutes with […] PBS. In the case of fixing with PFA, the cells are permeabilized with Triton X-100 at 0.1% in PBS for 10 min at 4° C., then washed again. With regard to fixing with methanol, this confers the advantage of fixing and permeabilizing the cells at the same time. […] Starting from the fixing stage, all the solutions are filtered beforehand over a 0.2 μm filter in order to eliminate the fluorescence artefacts and the background noise. […] Then, three washes of 5 min in PBS are carried out, before incubation of the secondary antibody coupled with an Alexa fluor 488® (green fluorescence) (Table 4) for 1 hour at ambient temperature in the PBS-BSA solution. […]

Sequence “GRKKRRQRRRPPQVLIVKKYVCGGRFLVHRYSVLQQHAEANGVDGVDALDTASHTNKSGYHDDSDEDLLEGKPIPNPLLGLDST [SEQ ID NO 7]” has an IC50 ([1]; A549, 24 hours incubation) of 1420 nM, an IC50 ([1]; A549, 48 hours incubation) of 1520 nM and an IC50 ([1]; A549, 72 hours incubation) of 570 nM. The “quantity of intracellular peptide detected in the cell lysate (anti-V5 western blot)” value [2] was “dose-dependent peptide penetration”, the “level of annexin V (marker of apoptosis)” value [3] was “increase” and the “level of caspases 3 and 7 (marker of apoptosis)” value [3] was “increase”. For the same sequence, the “activation of annexin V (marker of apoptosis)” value [4] was “does not seem to lead to activation”, the “activation of caspases 3 and 7 (marker of apoptosis)” value [4] was “does not seem to lead to activation” and the “level of annexin V (marker of apoptosis)” value [5] was “increase”. For the same sequence, the “level of caspases 3 and 7 (marker of apoptosis)” value [5] was “increase”, the “level of annexin V (marker of apoptosis)” value [6] was “increase” and the “level of caspases 3 and 7 (marker of apoptosis)” value [6] was “increase”. For the same sequence, the “subcellular distribution of the peptide (anti-V5 immunofluorescence, DAPI)” value [7] was “punctiform nuclear distribution”.
